Results taken from patent publication US20250084079A1, “COMPOSITIONS AND METHODS FOR INHIBITION OF RAS” (TheRas, Inc., priority 2022, published 2025).
Like-named read-outs stand apart in the source and are kept apart here.

What was measured:
[1] = biological target: T1, Avi-KRAS G12D/Q25A (1-169) GppNHp/3xFLAG-PI3KCA (157-299) (Homo sapiens, UniProt P01116, G12D/Q25A); assay: RAS-effector PPI HTRF disruption assay, PI3KCA-GppNHp-KRAS G12D/Q25A; type: biochemical
T1 construct: 375 nM Avi-KRAS G12D/Q25A (1-169) GppNHp
Procedure: (§1) A protein:protein interaction (PPI) Homogeneous Time Resolved Fluorescence (HTRF) assay was used to determine the effectiveness of compounds of the present disclosure in disrupting KRAS protein and effector (RAF1 or PIK3 CA) binding.
(§2) The HTRF assay used the following reagents and proteins: (i) 375 nM Avi-KRAS G12D/Q25A (1-169) GppNHp/3×FLAG-PI3KCA (157-299); (ii) 100 nM Avi-KRAS G12D (1-169) GppNHp/RAF1 RBD-3×FLAG (52-151); (iii) 50 nM Avi-KRAS G12V (1-169) GppNHp/RAF1 RBD-3×FLAG (52-151); (iv) 50 nM Avi-KRAS WT (1-169) GppNHp/RAF1 RBD-3×FLAG (52-151); and (v) 35 nM Avi-PI3K RBD CA-3×FLAG; Assay Buffer: 50 mM Tris pH 7.5, 100 mM NaCl, 5 mM MgCl2, 0.1% BSA, 0.01% Tween, 1 mM TCEP, 10% DMSO; Bead Buffer: 50 mM Tris pH 7.5, 0.01% Tween 20; Assay volume: 20 μL (384 well plate-low volume format); and Compound titration: 100-0.02 μM, 3× dilution series.
(§3) The HTRF assay employed the following protocol:
(§4) Compounds were dispensed in assay plate (384-well, Grenier Bione #784075) using Echo (model 555) with dose response settings: 200 nL final volume, titration from 100 μM as a 10-point dilution series. Protein mix was prepared in assay buffer, and dispensed on plates, 10 μL per well, then incubated for 1 h at room temperature, with 700 rpm shaking. Reagents mix was prepared and dispensed on plates, 10 μL per well, then incubated for 1 h at room temperature, with 700 rpm shaking.
(§5) Plates were analyzed on an Envision plate reader using the following setting: Excitation 320 nm, Bandwidth […]; Emission 615 nm, Bandwidth […], Gain 100%, Flashes 100, Lag 60 μs. Data was reported as percentage of activity, with DMSO as 100%. Data was plotted and analyzed using Prism 8. The SPR Kd, biochemical Raf1-KRAS G12D/G12V/WT-GppNHP and PI3KCA-KRAS G12D/Q25A-GppNHp disruption assay IC50 of selected compounds described herein are shown in Table 4.

[2] = biological target: T2, Avi-KRAS WT (1-169) GppNHp/RAF1 RBD-3xFLAG (52-151) (Homo sapiens, UniProt P01116); assay: RAS-effector PPI HTRF disruption assay, Raf1-GppNHp-KRAS WT; type: biochemical
T2 construct: 50 nM Avi-KRAS WT (1-169) GppNHp
Procedure: as §1, §2, §3, §4, §5

[3] = biological target: T3, Avi-KRAS G12V (1-169) GppNHp/RAF1 RBD-3xFLAG (52-151) (Homo sapiens, UniProt P01116, G12V); assay: RAS-effector PPI HTRF disruption assay, Raf1-GppNHp-KRAS G12V; type: biochemical
T3 construct: 50 nM Avi-KRAS G12V (1-169) GppNHp
Procedure: as §1, §2, §3, §4, §5

[4] = system: pERK in GP2d cells (KRAS G12D); assay: Cell-based pERK HTRF assay in GP2d cell; settings: 60 min incubation
Procedure: A pERK assay (Perkin Elmer) was used to determine the effectiveness of compounds in disrupting KRAS G12D protein/effector signaling in cells.
On Day 1, cells (GP2d) were seeded into 96-well plates at 3×10^4 cells/well in 80 μL complete growth media (DMEM, 10% FBS).
On Day 2, cells were treated with compounds at 0.25% DMSO. The source plate was created with compounds diluted in media at 5-fold the final assay concentration. The compounds were run in a 9-point concentration curve starting at 1 μM, with a half-log dilution between concentrations. 20 μL was transferred onto the cell plates (final volume in wells was 100 μL). Plates were harvested after 60 min incubation by aspirating media and adding kit-supplied 1× supplemented lysis buffer to all wells (50 μL per well). Plates were then placed on a plate shaker and incubated at 850 rpm for an additional 30 min.
Antibody mixture solution is prepared by diluting aliquoted d2 and Eu Cryptate antibodies 1:20 in kit supplied detection buffer, mix the diluted antibodies solutions (1:1 v:v). 4 μL of this solution is then added to a 384-well detection plate (Perkin Elmer; 6008230).
Samples were homogenized by pipetting up and down and then transferred (16 μL of cell lysates) from the 96-well cell culture plate to two wells of the HTRF 384-well detection plate containing the antibody solution. Plates were centrifuged (524 g for 1 min) and allowed to incubate between 4 and 24 h at room temperature. Maximum signal is reached after 4 h incubation time and remains stable over a period of 24 hours. Therefore, readings can be made between 4 and 24 h of incubation. Plates were centrifuged again (524 g for Imin), then analyzed on the EnVision plate reader using the following settings: Excitation 320 nm, Bandwidth 75 nm; Emission 615 nm, Bandwidth 85 nm; Gain 100%; Flashes 100; Lag 60 μs.

[5] = biological target: T4, Avi-KRAS G12D (1-169) GppNHp/RAF1 RBD-3xFLAG (52-151) (Homo sapiens, UniProt P01116, G12D); assay: RAS-effector PPI HTRF disruption assay, Raf1-GppNHp-KRAS G12D; type: biochemical
T4 construct: 100 nM Avi-KRAS G12D (1-169) GppNHp
Procedure: as §1, §2, §3, §4, §5

T4 sequence (P01116 1-169 isoform P01116-2 G12D): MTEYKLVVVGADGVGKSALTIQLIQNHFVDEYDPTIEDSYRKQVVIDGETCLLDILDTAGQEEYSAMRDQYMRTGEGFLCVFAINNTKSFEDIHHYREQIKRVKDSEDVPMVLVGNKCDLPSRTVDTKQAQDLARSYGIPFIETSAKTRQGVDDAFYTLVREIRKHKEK
T3 sequence (P01116 1-169 isoform P01116-2 G12V): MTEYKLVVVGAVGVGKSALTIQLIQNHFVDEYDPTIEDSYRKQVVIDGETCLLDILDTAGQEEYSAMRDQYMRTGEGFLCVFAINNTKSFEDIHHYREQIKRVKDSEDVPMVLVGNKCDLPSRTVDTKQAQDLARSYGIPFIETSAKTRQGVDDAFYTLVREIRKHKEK
T2 sequence (P01116 1-169 isoform P01116-2): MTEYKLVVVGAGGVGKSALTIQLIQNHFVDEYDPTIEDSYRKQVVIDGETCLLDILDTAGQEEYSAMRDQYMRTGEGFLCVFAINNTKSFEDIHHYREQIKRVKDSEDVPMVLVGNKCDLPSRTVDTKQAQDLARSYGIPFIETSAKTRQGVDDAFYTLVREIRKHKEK
T1 sequence (P01116 1-169 isoform P01116-2 G12D/Q25A): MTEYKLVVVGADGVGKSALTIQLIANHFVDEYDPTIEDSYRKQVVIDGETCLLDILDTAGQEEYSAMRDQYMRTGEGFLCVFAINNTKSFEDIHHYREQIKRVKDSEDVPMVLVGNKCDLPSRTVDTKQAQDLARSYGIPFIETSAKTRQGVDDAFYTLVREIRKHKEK

SMILES: C[C@H]1NCC[C@H]1Oc1nc(OC[C@@]23CCCN2C[C@H](F)C3)nc2c(F)c(-c3ccc(F)c4sc(N)c(C#N)c34)c(C(F)(F)F)cc12 (single isomer, unassigned) [Compound 73]
- IC50 [1]: ≤ 0.1 µM
- IC50 [2]: ≤ 0.1 µM
- IC50 [3]: ≤ 0.1 µM
- IC50 ([4]; read-out: pERK-Gp2D-1 hr): ≤ 0.1 µM
- IC50 [5]: ≤ 0.1 µM

SMILES: CC1(C)NCCC1Oc1nc(OC[C@@]23CCCN2C[C@H](F)C3)nc2c(F)c(-c3ccc(F)c4sc(N)c(C#N)c34)c(C(F)(F)F)cc12 (stereo partly shown) [Compound 34]
- IC50 [1]: 0.1 to 1 µM
- IC50 [2]: 0.1 to 1 µM
- IC50 [3]: 0.1 to 1 µM
- IC50 ([4]; GP2d, 1 h): ≤ 0.1 µM
- IC50 [5]: 0.1 to 1 µM

SMILES: N#Cc1c(N)sc2c(F)ccc(-c3ncc4c(O[C@@H]5CCNC5)nc(OC[C@@]56CCCN5C[C@H](F)C6)nc4c3F)c12 [Compound 97]
- IC50 [1]: > 10 µM
- IC50 [2]: 1 to 10 µM
- IC50 [3]: > 10 µM
- IC50 ([4]; GP2d, 1 h): 0.1 to 1 µM
- IC50 [5]: 1 to 10 µM

SMILES: Nc1nc2c(-c3cc4nc(OC[C@@]56CCCN5C[C@H](F)C6)nc(O[C@H]5CNC[C@H]5F)c4cc3C(F)(F)F)ccc(F)c2s1 [Compound 31]
- IC50 [1]: > 10 µM
- IC50 [2]: > 10 µM
- IC50 [3]: > 10 µM
- IC50 ([4]; GP2d, 1 h): > 1 µM
- IC50 [5]: 1 to 10 µM

SMILES: C[C@H]1NCC[C@@H]1Oc1nc(OC[C@@]23CCCN2C[C@H](Cl)C3)nc2c(F)c(-c3ccc(F)c4sc(N)c(C#N)c34)c(C(F)(F)F)cc12 [Compound 72]
- IC50 [1]: 0.1 to 1 µM
- IC50 [2]: ≤ 0.1 µM
- IC50 [3]: 0.1 to 1 µM
- IC50 ([4]; GP2d, 1 h): ≤ 0.1 µM
- IC50 [5]: ≤ 0.1 µM

SMILES: Nc1nc2c(-c3c(C(F)(F)F)cc4c(O[C@H]5CN[C@H](CO)C5)nc(OCC56CCCN5C[C@H](F)C6)nc4c3F)ccc(F)c2s1 (stereo partly shown) [Compound 52]
- IC50 [1]: 1 to 10 µM
- IC50 [2]: 1 to 10 µM
- IC50 [3]: > 10 µM
- IC50 ([4]; GP2d, 1 h): 0.1 to 1 µM
- IC50 [5]: 0.1 to 1 µM

SMILES: N#Cc1c(N)sc2c(F)ccc(-c3c(Cl)cc4c(O[C@H]5CCN[C@@H]5CO)nc(OC[C@@]56CCCN5C[C@H](F)C6)nc4c3F)c12 (atropisomer, axis not shown) [Compound 76]
- IC50 [1]: ≤ 0.1 µM
- IC50 [2]: ≤ 0.1 µM
- IC50 [3]: ≤ 0.1 µM
- IC50 ([4]; read-out: pERK-Gp2D-1 hr): ≤ 0.1 µM
- IC50 [5]: ≤ 0.1 µM

SMILES: CC1(C)NCC[C@H]1Oc1nc(OC[C@@]23CCCN2C[C@H](F)C3)nc2c(F)c(-c3ccc(F)c4sc(N)nc34)c(C(F)(F)F)cc12 [Compound 27]
- IC50 [1]: > 10 µM
- IC50 [2]: 1 to 10 µM
- IC50 [3]: 1 to 10 µM
- IC50 ([4]; GP2d, 1 h): 0.1 to 1 µM
- IC50 [5]: 0.1 to 1 µM

SMILES: C[C@H]1C[C@H](Oc2nc(OC[C@@]34CCCN3C[C@H](F)C4)nc3c(F)c(-c4ccc(F)c5sc(N)c(C#N)c45)c(Cl)cc23)CN1 [Compound 54]
- IC50 [1]: 0.1 to 1 µM
- IC50 [2]: 0.1 to 1 µM
- IC50 [3]: 1 to 10 µM
- IC50 ([4]; read-out: pERK-Gp2D-1 hr): 0.1 to 1 µM
- IC50 [5]: 0.1 to 1 µM

SMILES: Nc1nc2c(-c3c(C(F)(F)F)cc4c(O[C@H]5CCNC5)nc(OC[C@@]56CCCN5C[C@H](F)C6)nc4c3F)ccc(F)c2s1 [Compound 13]
- IC50 [1]: 1 to 10 µM
- IC50 [2]: 0.1 to 1 µM
- IC50 [3]: 1 to 10 µM
- IC50 ([4]; GP2d, 1 h): ≤ 0.1 µM
- IC50 [5]: 0.1 to 1 µM

SMILES: N#Cc1c(N)sc2c(F)ccc(-c3c(C(F)(F)F)cc4c(O[C@@H]5CCN[C@@H]5CO)nc(OC[C@@]56CCCN5C[C@H](F)C6)nc4c3F)c12 [Compound 50]
- IC50 [1]: 0.1 to 1 µM
- IC50 [2]: 0.1 to 1 µM
- IC50 [3]: 0.1 to 1 µM
- IC50 ([4]; GP2d, 1 h): ≤ 0.1 µM
- IC50 [5]: 0.1 to 1 µM
